Assay results reported in patent US20150330989A1, “METHOD AND SYSTEM FOR DIAGNOSING AND TREATING PREECLAMPSIA” (THE BRIGHAM AND WOMEN'S HOSPITAL, INC., priority 2012, published 2015).

What was measured:
[1] = target: factor D (Homo sapiens, UniProt P00746); conditions: site of action factor D; cited from earlier work
[2] = target: T1, C2, classical (Homo sapiens, UniProt P06681); conditions: in vitro; cited from earlier work
T1 sequence (P06681 21-752): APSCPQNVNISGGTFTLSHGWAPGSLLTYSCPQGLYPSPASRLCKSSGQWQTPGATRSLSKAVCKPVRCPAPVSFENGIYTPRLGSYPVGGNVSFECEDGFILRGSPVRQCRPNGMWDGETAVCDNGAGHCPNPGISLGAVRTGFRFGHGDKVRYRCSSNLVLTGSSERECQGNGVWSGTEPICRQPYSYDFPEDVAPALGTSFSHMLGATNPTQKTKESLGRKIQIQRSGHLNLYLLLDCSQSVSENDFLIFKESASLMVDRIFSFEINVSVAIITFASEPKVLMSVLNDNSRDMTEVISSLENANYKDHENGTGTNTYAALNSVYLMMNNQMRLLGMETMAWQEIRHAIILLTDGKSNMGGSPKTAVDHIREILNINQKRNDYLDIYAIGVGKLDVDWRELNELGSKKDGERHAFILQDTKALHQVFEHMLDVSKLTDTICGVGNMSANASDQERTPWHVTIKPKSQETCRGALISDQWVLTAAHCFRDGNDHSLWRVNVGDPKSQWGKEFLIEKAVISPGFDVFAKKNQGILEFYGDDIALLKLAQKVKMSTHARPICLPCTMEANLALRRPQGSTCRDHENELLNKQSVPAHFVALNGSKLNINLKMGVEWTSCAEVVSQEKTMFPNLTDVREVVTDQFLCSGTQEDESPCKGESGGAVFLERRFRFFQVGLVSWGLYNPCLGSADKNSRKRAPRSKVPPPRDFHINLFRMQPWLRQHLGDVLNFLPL

[3] = tested on: patent ductus arteriosus; experiment: NICU course of the neonate; type: in vivo, human
Protocol: The neonate was intubated at 10 min of life for respiratory support and admitted to the NICU. They were extubated the following morning after one dose of surfactant; blood cultures were negative; and head ultrasound was normal. NICU course was notable for a patent ductus arteriosus (responsive to Indomethacin) and inguinal hernia repair (day 67), after which they were discharged home in good condition. There were trace levels of Eculizumab in cord blood samples taken at delivery, thought secondary to contamination with maternal blood.

[4] = tested on: severe preeclampsia/HELLP syndrome; experiment: Case report: Eculizumab treatment of a pregnant patient with severe preeclampsia/HELLP syndrome; type: in vivo, human; conditions: initial course during Eculizumab treatment
[5] = target: T2, C3 convertase, classical (Homo sapiens, UniProt P06681); conditions: in vitro; cited from earlier work
T2 sequence (P06681 244-752 limits assumed): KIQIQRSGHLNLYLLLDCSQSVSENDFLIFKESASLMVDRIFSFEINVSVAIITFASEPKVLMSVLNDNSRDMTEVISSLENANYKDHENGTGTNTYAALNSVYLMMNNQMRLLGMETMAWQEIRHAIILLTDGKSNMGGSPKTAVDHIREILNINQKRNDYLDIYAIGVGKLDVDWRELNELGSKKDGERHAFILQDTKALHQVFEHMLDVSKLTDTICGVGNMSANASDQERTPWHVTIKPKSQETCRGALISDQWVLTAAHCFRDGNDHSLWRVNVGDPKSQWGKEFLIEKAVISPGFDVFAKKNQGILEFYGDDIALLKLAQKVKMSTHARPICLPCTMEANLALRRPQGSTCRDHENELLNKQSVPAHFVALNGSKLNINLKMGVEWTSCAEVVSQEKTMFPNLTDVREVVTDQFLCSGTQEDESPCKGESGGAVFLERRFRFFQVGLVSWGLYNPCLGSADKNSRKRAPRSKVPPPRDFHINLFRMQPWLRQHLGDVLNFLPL

Sequence of factor D (P00746 26-253): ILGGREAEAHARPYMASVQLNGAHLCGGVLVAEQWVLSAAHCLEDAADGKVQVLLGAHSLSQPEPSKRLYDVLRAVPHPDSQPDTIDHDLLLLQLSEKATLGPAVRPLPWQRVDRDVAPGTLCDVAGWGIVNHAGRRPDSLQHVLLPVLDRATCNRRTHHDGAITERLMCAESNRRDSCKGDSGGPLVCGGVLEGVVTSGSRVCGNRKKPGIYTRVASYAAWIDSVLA

N=C(N)c1cc2ccc(OC(=O)c3cccs3)cc2s1 [BCX-1470]
IC50 [1]: 0.096 µM

CC1(C)[C@@H](O[C@H]2O[C@H](C(=O)O)[C@@H](O)[C@H](O)[C@H]2O[C@@H]2O[C@H](C(=O)O)[C@@H](O)[C@H](O)[C@H]2O)CC[C@]2(C)[C@H]3C(=O)C=C4[C@@H]5C[C@@](C)(C(=O)O)CC[C@]5(C)CC[C@@]4(C)[C@]3(C)CC[C@@H]12 [Glycyrrhizin]
IC50 [2]: 35 µM

COc1ccc2c(c1)c(CC(=O)O)c(C)n2C(=O)c1ccc(Cl)cc1 [Indomethacin]
patent ductus arteriosus, response [3]: responsive

CC(CCc1ccccc1)NCC(O)c1ccc(O)c(C(N)=O)c1 (stereo not drawn) [Labetalol]
escalating blood pressures, response [4]: responded

NS(=O)(=O)c1cc(C(=O)O)c(NCc2ccco2)cc1Cl [Lasix]
pulmonary edema, response [4]: responded

O=C(/C=C/c1ccc(O)c(O)c1)O[C@H](Cc1ccc(O)c(O)c1)C(=O)O [Rosmarinic acid]
IC50 [5]: 5 to 10 µM
